In ChEMBL document CHEMBL4706543, “Discovery of the first potent and selective αβ integrin inhibitor based on an amide-containing core” (Eur J Med Chem, 2020):
Converted amounts (≈) assume the structure as drawn.

Legend:
Integrin alpha-V/beta-3 [1] = biological target: T1, Integrin alpha-V/beta-3 (Homo sapiens, UniProt P05106+P06756); experiment: Inhibition of integrin alphavbeta3 (unknown origin) by fluorescence polarization assay
Integrin alpha-V/beta-5 [2] = biological target: T2, Integrin alpha-V/beta-5 (Homo sapiens, UniProt P06756+P18084); experiment: Inhibition of integrin alphavbeta5 (unknown origin) by fluorescence polarization assay
T2 sequence (P06756 31-889 limits assumed): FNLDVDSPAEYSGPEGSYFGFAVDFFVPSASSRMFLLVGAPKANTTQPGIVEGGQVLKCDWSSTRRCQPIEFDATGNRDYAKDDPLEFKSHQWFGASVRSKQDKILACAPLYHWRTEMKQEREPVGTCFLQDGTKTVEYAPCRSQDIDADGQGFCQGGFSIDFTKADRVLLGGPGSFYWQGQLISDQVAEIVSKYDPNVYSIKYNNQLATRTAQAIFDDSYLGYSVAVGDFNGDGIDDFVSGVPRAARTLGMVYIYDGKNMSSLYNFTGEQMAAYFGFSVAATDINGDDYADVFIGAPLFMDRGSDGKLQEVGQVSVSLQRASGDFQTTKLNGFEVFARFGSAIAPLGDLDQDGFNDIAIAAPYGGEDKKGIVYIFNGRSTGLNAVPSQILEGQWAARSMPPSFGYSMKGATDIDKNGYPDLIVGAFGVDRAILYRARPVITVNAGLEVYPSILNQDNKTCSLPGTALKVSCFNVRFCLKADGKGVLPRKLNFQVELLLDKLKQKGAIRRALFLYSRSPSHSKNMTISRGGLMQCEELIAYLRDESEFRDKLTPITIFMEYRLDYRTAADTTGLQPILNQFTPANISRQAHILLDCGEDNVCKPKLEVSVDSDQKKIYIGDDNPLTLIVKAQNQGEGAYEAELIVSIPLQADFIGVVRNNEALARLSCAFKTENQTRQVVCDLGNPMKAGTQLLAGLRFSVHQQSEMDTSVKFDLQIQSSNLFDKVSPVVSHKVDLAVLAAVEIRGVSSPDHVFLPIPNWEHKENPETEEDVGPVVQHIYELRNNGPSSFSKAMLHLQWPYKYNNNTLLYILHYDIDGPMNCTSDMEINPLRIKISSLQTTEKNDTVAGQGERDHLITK
T2 sequence (P06756 891-1048 limits assumed): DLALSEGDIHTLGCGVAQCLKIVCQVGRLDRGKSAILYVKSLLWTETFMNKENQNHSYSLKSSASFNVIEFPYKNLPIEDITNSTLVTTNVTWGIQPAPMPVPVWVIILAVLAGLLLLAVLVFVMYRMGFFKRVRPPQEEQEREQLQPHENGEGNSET
T2 sequence (P18084 24-799 limits assumed): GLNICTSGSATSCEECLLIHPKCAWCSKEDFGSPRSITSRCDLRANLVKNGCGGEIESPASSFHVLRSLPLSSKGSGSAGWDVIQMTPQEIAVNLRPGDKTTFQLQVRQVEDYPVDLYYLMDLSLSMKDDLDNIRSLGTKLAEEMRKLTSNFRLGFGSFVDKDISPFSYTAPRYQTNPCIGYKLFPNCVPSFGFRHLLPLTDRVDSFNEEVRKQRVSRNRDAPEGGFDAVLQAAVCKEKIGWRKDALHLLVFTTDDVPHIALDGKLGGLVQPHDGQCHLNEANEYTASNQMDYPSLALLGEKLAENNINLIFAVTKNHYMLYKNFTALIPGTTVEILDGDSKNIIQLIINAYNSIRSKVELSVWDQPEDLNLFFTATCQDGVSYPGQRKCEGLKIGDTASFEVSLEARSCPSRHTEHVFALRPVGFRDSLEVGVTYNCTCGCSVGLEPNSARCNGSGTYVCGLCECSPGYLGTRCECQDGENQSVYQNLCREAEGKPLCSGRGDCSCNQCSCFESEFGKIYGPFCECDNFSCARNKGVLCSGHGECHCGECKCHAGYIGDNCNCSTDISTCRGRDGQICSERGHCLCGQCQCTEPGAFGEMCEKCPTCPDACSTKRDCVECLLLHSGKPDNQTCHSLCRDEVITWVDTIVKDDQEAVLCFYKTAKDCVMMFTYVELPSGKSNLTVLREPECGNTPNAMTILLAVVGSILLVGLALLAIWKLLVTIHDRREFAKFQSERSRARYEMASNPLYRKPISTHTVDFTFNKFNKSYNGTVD

Integrin alpha-V/beta-5 [3] = biological target: T2, Integrin alpha-V/beta-5; experiment: Inhibition of human alphavbeta5 integrin stably expressed in human K562 cells assessed as inhibition of cell adhesion to vitronectin incubated for 30 mins by BCECF-AM staining based fluorescence assay
Homo sapiens = species: Homo sapiens; experiment: Selectivity ratio of IC50 for inhibition of integrin alphavbeta3 (unknown origin) to IC50 for inhibition of integrin alphavbeta5 (unknown origin)
Integrin alpha-V/beta-3 [4] = biological target: T1, Integrin alpha-V/beta-3; experiment: Inhibition of human alphavbeta3 integrin stably expressed in human K562 cells assessed as inhibition of cell adhesion to GST-LAP1 incubated for 30 mins by BCECF-AM staining based fluorescence assay
[5] = Clearance in human microsomes assessed per gram tissue; assay type: ADME, Microsome
[6] = Clearance in rat microsomes based well stirred model; assay type: ADME, Microsome
[7] = Passive permeability of compound in MDCK cells; assay type: ADME, cell-based, Canis lupus familiaris; details: dog, read-out: permeability
[8] = Solubility of the compound by CAD method; assay type: physicochemical
[9] = Clearance in rat hepatocytes assessed per gram tissue; assay type: ADME, cell-based, Hepatocyte
[10] = Clearance in human hepatocytes based well stirred model; assay type: ADME, cell-based, Hepatocyte
[11] = Clearance in human microsomes based well stirred model; assay type: ADME, Microsome
[12] = Lipophilicity, log D of compound by chromatographic method; assay type: physicochemical
[13] = Clearance in rat microsomes assessed per gram tissue; assay type: ADME, Microsome
[14] = Clearance in human hepatocytes assessed per gram tissue; assay type: ADME, cell-based, Hepatocyte
[15] = Clearance in rat hepatocytes based well stirred model; assay type: ADME, cell-based, Hepatocyte
Integrin alpha-V/beta-6 = Integrin alpha-V/beta-6 (Homo sapiens, UniProt P06756+P18564); experiment: Inhibition of integrin alphavbeta6 (unknown origin) by fluorescence polarization assay; assay type: protein-complex assay
Integrin alpha-V/beta-8 = Integrin alpha-V/beta-8 (Homo sapiens, UniProt P06756+P26012); experiment: Inhibition of integrin alphavbeta8 (unknown origin) by fluorescence polarization assay; assay type: protein-complex assay
Chain of Integrin alpha-V/beta-8 (P06756 31-889 limits assumed): as the sequence (P06756 31-889 limits assumed) above
Chain of Integrin alpha-V/beta-8 (P06756 891-1048 limits assumed): as the sequence (P06756 891-1048 limits assumed) above
Chain of Integrin alpha-V/beta-8 (P26012 43-769 limits assumed): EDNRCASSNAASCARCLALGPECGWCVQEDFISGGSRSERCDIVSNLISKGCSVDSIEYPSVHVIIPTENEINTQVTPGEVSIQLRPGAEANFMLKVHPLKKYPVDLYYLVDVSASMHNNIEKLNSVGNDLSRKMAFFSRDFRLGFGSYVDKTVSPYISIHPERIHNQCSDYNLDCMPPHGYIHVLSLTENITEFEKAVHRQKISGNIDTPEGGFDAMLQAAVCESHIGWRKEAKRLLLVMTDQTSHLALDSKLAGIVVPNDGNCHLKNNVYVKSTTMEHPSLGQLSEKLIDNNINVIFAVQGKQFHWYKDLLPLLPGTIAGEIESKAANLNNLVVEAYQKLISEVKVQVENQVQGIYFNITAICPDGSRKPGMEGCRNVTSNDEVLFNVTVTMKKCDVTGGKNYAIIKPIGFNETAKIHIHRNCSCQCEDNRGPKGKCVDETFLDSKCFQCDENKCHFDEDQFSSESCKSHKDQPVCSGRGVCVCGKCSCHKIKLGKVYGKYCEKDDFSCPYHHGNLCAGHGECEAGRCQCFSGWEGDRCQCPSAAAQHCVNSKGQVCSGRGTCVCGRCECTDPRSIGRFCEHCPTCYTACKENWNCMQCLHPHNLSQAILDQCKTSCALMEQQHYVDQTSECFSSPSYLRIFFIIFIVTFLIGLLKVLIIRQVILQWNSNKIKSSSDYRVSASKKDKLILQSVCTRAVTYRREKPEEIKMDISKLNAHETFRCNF

Integrin alpha-V/beta-1 = Integrin alpha-V/beta-1 (Homo sapiens, UniProt P05556+P06756); experiment: Inhibition of integrin alphavbeta1 (unknown origin) by fluorescence polarization assay; assay type: protein-complex assay
Chain of Integrin alpha-V/beta-1 (P05556 21-798 limits assumed): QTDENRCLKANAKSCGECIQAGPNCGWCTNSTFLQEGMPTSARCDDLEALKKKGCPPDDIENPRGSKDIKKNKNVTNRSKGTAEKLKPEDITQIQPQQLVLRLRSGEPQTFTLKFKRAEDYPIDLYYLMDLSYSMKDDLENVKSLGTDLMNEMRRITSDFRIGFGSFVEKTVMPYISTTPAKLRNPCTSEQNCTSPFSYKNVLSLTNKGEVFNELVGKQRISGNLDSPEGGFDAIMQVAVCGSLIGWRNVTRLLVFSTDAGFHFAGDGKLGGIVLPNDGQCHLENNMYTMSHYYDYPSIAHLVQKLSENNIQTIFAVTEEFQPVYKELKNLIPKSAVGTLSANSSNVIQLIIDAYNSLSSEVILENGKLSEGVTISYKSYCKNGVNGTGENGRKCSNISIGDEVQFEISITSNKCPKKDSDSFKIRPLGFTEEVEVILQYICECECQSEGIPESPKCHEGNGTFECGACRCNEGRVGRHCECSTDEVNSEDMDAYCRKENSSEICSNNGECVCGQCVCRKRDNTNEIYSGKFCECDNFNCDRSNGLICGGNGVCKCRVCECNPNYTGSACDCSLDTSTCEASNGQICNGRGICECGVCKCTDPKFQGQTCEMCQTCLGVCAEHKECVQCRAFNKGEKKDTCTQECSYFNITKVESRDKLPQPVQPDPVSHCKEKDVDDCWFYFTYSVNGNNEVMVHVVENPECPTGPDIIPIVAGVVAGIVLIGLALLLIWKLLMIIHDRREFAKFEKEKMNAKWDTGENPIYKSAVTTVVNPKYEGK
Chain of Integrin alpha-V/beta-1 (P06756 31-889 limits assumed): as the sequence (P06756 31-889 limits assumed) above
Chain of Integrin alpha-V/beta-1 (P06756 891-1048 limits assumed): as the sequence (P06756 891-1048 limits assumed) above

T1 sequence (P05106 27-788 limits assumed): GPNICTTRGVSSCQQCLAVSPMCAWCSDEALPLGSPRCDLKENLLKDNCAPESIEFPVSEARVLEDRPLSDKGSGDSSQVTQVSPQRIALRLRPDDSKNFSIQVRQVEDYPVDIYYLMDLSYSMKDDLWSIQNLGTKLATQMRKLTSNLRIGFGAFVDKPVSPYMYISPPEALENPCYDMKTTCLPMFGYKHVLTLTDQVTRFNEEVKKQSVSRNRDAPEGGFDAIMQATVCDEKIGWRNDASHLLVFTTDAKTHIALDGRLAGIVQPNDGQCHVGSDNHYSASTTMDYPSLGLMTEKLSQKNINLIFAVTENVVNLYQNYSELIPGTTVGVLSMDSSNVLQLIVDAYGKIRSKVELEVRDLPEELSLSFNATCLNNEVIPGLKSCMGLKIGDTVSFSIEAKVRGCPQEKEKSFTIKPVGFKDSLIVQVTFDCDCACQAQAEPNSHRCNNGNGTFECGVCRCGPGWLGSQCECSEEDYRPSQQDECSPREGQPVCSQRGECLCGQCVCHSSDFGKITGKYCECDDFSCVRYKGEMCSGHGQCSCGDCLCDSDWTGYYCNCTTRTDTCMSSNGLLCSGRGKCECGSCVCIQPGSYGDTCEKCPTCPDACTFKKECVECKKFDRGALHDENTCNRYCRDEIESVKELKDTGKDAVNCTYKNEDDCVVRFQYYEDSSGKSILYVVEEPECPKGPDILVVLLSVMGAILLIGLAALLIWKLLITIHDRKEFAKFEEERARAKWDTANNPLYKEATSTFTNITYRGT
T1 sequence (P06756 31-889 limits assumed): as the sequence (P06756 31-889 limits assumed) above
T1 sequence (P06756 891-1048 limits assumed): as the sequence (P06756 891-1048 limits assumed) above

C=C(C)c1cccc([C@H](CC(=O)O)C(=O)N2CC[C@@H](CCc3ccc4c(n3)NCCC4)C2)c1
IC50 (Integrin alpha-V/beta-3 [1]): 2510 nM
IC50 (Integrin alpha-V/beta-5 [2]): 5.01 nM
IC50 (Integrin alpha-V/beta-5 [3]): 316 nM
Ratio IC50 (Homo sapiens): 500
IC50 (Integrin alpha-V/beta-3 [4]): > 10 µM

O=C(O)CCn1ccc2cc(OCCCNc3ccccn3)ccc21
IC50 (Integrin alpha-V/beta-3 [1]): 251 nM
IC50 (Integrin alpha-V/beta-5 [2]): 39.8 nM
Ratio IC50 (Homo sapiens): 6

O=C(O)C[C@@H](C(=O)N1CC[C@@H](CCc2ccc3c(n2)NCCC3)C1)c1cccc(Br)c1
IC50 (Integrin alpha-V/beta-3 [1]): 10000 nM
IC50 (Integrin alpha-V/beta-5 [2]): 2000 nM
Ratio IC50 (Homo sapiens): 5

Cc1cccc([C@H](CC(=O)O)C(=O)N2CC[C@@H](CCc3ccc4c(n3)NCCC4)C2)c1
IC50 (Integrin alpha-V/beta-3 [1]): 1580 nM
clearance [5]: < 0.4 mL/min/g
clearance [6]: < 14 mL/min/kg
IC50 (Integrin alpha-V/beta-5 [2]): 3.98 nM
Papp [7]: 17.6 ×10⁻⁶ cm/s
solubility [8]: 142 µg/mL (≈ 337 µM)
IC50 (Integrin alpha-V/beta-5 [3]): 79.4 nM
CLH [9]: 3.2 mL/min/g
CLH [10]: < 7 mL/min/kg
Ratio IC50 (Homo sapiens): 400
clearance [11]: < 6 mL/min/kg
chromatographic logD [12]: 4.16
IC50 (Integrin alpha-V/beta-3 [4]): 6.31 µM
clearance [13]: < 0.46 mL/min/g
CLH [14]: < 0.45 mL/min/g
CLH [15]: 46 mL/min/kg

O=C(O)C[C@H](C(=O)N1CC(CCc2ccc3c(n2)NCCC3)C1)c1ccccc1
IC50 (Integrin alpha-V/beta-3 [1]): 3160 nM
IC50 (Integrin alpha-V/beta-5 [2]): 25.1 nM
Ratio IC50 (Homo sapiens): 125

O=C(O)C[C@H](C(=O)N1CC[C@@H](CCc2ccc3c(n2)NCCC3)C1)c1cccc(N2CCNCC2)c1
IC50 (Integrin alpha-V/beta-3 [1]): 1580 nM
IC50 (Integrin alpha-V/beta-5 [2]): 15.8 nM
Ratio IC50 (Homo sapiens): 100

O=C(O)C[C@H](C(=O)N1CC[C@@H](CCc2ccc3c(n2)NCCC3)C1)c1cccc(C2CC2)c1
IC50 (Integrin alpha-V/beta-3 [1]): 6310 nM
IC50 (Integrin alpha-V/beta-5 [2]): 7.94 nM
IC50 (Integrin alpha-V/beta-5 [3]): 316 nM
Ratio IC50 (Homo sapiens): 800
IC50 (Integrin alpha-V/beta-3 [4]): > 10 µM

O=C(O)C[C@H](C(=O)N1CC[C@@H](CCc2ccc3c(n2)NCCC3)C1)c1cccc(N2CCOCC2)c1
IC50 (Integrin alpha-V/beta-3 [1]): 2000 nM
IC50 (Integrin alpha-V/beta-5 [2]): 12.6 nM
Ratio IC50 (Homo sapiens): 160

O=C(O)C[C@H](C(=O)N1CC[C@@H](CCc2ccc3c(n2)NCCC3)C1)c1cccc(C2=CCCC2)c1
IC50 (Integrin alpha-V/beta-3 [1]): 1260 nM
IC50 (Integrin alpha-V/beta-5 [2]): 7.94 nM
Ratio IC50 (Homo sapiens): 160

CN1CCN(c2cccc([C@H](CC(=O)O)C(=O)N3CC[C@@H](CCc4ccc5c(n4)NCCC5)C3)c2)CC1
IC50 (Integrin alpha-V/beta-3 [1]): 1260 nM
IC50 (Integrin alpha-V/beta-5 [2]): 10 nM
Ratio IC50 (Homo sapiens): 125

O=C(O)C[C@H](C(=O)N1CC[C@@H](CCc2ccc3c(n2)NCCC3)C1)c1cc(Br)cc(Br)c1
IC50 (Integrin alpha-V/beta-3 [1]): 1580 nM
IC50 (Integrin alpha-V/beta-5 [2]): 5.01 nM
Ratio IC50 (Homo sapiens): 320

O=C(O)C[C@H](C(=O)N1CC[C@@H](CCc2ccc3c(n2)NCCC3)C1)c1cccc(Br)c1
IC50 (Integrin alpha-V/beta-3 [1]): 794 nM
IC50 (Integrin alpha-V/beta-5 [2]): 3.98 nM
Ratio IC50 (Homo sapiens): 200

O=C(O)C[C@H](C(=O)N1CC[C@@H](CCc2ccc3c(n2)NCCC3)C1)c1ccccc1
IC50 (Integrin alpha-V/beta-3 [1]): 1000 nM
IC50 (Integrin alpha-V/beta-5 [2]): 3.98 nM
IC50 (Integrin alpha-V/beta-6): > 79.4 µM
Ratio IC50 (Homo sapiens): 250
IC50 (Integrin alpha-V/beta-8): > 79.4 µM
IC50 (Integrin alpha-V/beta-1): 3.98 µM

O=C(O)C[C@H](C(=O)N1CCCC(CCc2ccc3c(n2)NCCC3)C1)c1ccccc1 (some centres not stated)
IC50 (Integrin alpha-V/beta-3 [1]): 6310 nM
IC50 (Integrin alpha-V/beta-5 [2]): 501 nM
Ratio IC50 (Homo sapiens): 13

O=C(O)C[C@H](C(=O)N1CC[C@@H](CCc2ccc3c(n2)NCCC3)C1)c1ccc(Br)s1
IC50 (Integrin alpha-V/beta-3 [1]): 200 nM
IC50 (Integrin alpha-V/beta-5 [2]): 10 nM
Ratio IC50 (Homo sapiens): 20

CN(CCCCc1ccc2c(n1)NCCC2)C(=O)[C@@H](CC(=O)O)c1ccccc1
IC50 (Integrin alpha-V/beta-3 [1]): 5010 nM
IC50 (Integrin alpha-V/beta-5 [2]): 200 nM
Ratio IC50 (Homo sapiens): 25

O=C(O)C[C@H](C(=O)N1CC[C@@H](CCc2ccc3c(n2)NCCC3)C1)c1ccc(Br)cc1
IC50 (Integrin alpha-V/beta-3 [1]): 1260 nM
IC50 (Integrin alpha-V/beta-5 [2]): 6.31 nM
Ratio IC50 (Homo sapiens): 200

Cc1cc(C)cc([C@H](CC(=O)O)C(=O)N2CC[C@@H](CCc3ccc4c(n3)NCCC4)C2)c1
IC50 (Integrin alpha-V/beta-3 [1]): 3980 nM
IC50 (Integrin alpha-V/beta-5 [2]): 10 nM
IC50 (Integrin alpha-V/beta-5 [3]): 501 nM
Ratio IC50 (Homo sapiens): 400
IC50 (Integrin alpha-V/beta-3 [4]): > 10 µM

O=C(O)C[C@H](C(=O)N1CC[C@@H](CCc2ccc3c(n2)NCCC3)C1)c1cccc(C2CCCC2)c1
IC50 (Integrin alpha-V/beta-3 [1]): 2510 nM
Ratio IC50 (Homo sapiens): 200

O=C(O)C[C@H](C(=O)N1CC[C@@H](CCc2ccc3c(n2)NCCC3)C1)c1cc(Br)cs1
IC50 (Integrin alpha-V/beta-3 [1]): 316 nM
IC50 (Integrin alpha-V/beta-5 [2]): 3.16 nM
Ratio IC50 (Homo sapiens): 100

O=C(O)C[C@H](C(=O)N1CC[C@@H](CCc2ccc3c(n2)NCCC3)C1)c1ccsc1
IC50 (Integrin alpha-V/beta-3 [1]): 501 nM
IC50 (Integrin alpha-V/beta-5 [2]): 3.98 nM
Ratio IC50 (Homo sapiens): 125

Cc1ccc([C@H](CC(=O)O)C(=O)N2CC[C@@H](CCc3ccc4c(n3)NCCC4)C2)s1
IC50 (Integrin alpha-V/beta-3 [1]): 158 nM
IC50 (Integrin alpha-V/beta-5 [2]): 6.31 nM
Ratio IC50 (Homo sapiens): 25

O=C(O)C[C@H](C(=O)N1CC[C@@H](CCc2ccc3c(n2)NCCC3)C1)c1cccc(Cl)c1
IC50 (Integrin alpha-V/beta-3 [1]): 1000 nM
IC50 (Integrin alpha-V/beta-5 [2]): 2.51 nM
IC50 (Integrin alpha-V/beta-5 [3]): 126 nM
Ratio IC50 (Homo sapiens): 400
IC50 (Integrin alpha-V/beta-3 [4]): 6.31 µM

O=C(O)C[C@H](C(=O)N1CC[C@@H](CCc2ccc3c(n2)NCCC3)C1)c1cccc(O)c1
IC50 (Integrin alpha-V/beta-3 [1]): 158 nM
IC50 (Integrin alpha-V/beta-5 [2]): 3.98 nM
Ratio IC50 (Homo sapiens): 40

O=C(O)C[C@H](C(=O)N1CC(CCCc2ccc3c(n2)NCCC3)C1)c1ccccc1
IC50 (Integrin alpha-V/beta-3 [1]): 794 nM
IC50 (Integrin alpha-V/beta-5 [2]): 7.94 nM
Ratio IC50 (Homo sapiens): 100

CNc1cccc(CCOc2ccc3c(ccn3CCC(=O)O)c2)n1
IC50 (Integrin alpha-V/beta-3 [1]): 39.8 nM
IC50 (Integrin alpha-V/beta-5 [2]): 10 nM
Ratio IC50 (Homo sapiens): 4

Cc1csc([C@H](CC(=O)O)C(=O)N2CC[C@@H](CCc3ccc4c(n3)NCCC4)C2)c1
IC50 (Integrin alpha-V/beta-3 [1]): 631 nM
IC50 (Integrin alpha-V/beta-5 [2]): 3.16 nM
Ratio IC50 (Homo sapiens): 200

O=C(O)C[C@H](C(=O)N1CC[C@@H](CCc2ccc3c(n2)NCCC3)C1)c1ccccc1Br
IC50 (Integrin alpha-V/beta-3 [1]): 12600 nM
IC50 (Integrin alpha-V/beta-5 [2]): 1260 nM
Ratio IC50 (Homo sapiens): 10

O=C(O)C[C@H](C(=O)N1CC[C@@H](CCc2ccc3c(n2)NCCC3)C1)c1cccs1
IC50 (Integrin alpha-V/beta-3 [1]): 794 nM
IC50 (Integrin alpha-V/beta-5 [2]): 5.01 nM
Ratio IC50 (Homo sapiens): 160

N#Cc1cccc([C@H](CC(=O)O)C(=O)N2CC[C@@H](CCc3ccc4c(n3)NCCC4)C2)c1
IC50 (Integrin alpha-V/beta-3 [1]): 501 nM
clearance [5]: < 0.4 mL/min/g
clearance [6]: < 14 mL/min/kg
IC50 (Integrin alpha-V/beta-5 [2]): 3.16 nM
Papp [7]: 5.7 ×10⁻⁶ cm/s
solubility [8]: 192 µg/mL (≈ 444 µM)
CLH [9]: 1.4 mL/min/g
CLH [10]: < 7 mL/min/kg
Ratio IC50 (Homo sapiens): 160
clearance [11]: < 6 mL/min/kg
chromatographic logD [12]: 3.69
clearance [13]: < 0.46 mL/min/g
CLH [14]: < 0.45 mL/min/g
CLH [15]: 30 mL/min/kg

O=C(O)C[C@H](C(=O)N1CC[C@@H](CCc2ccc3c(n2)NCCC3)C1)c1cccc(-c2ccccc2)c1
IC50 (Integrin alpha-V/beta-3 [1]): 2000 nM
IC50 (Integrin alpha-V/beta-5 [2]): 6.31 nM
Ratio IC50 (Homo sapiens): 320

O=C(O)C[C@H](C(=O)N1CC[C@@H](CCc2ccc3c(n2)NCCC3)C1)c1cccc(C(F)(F)F)c1
IC50 (Integrin alpha-V/beta-3 [1]): 5010 nM
clearance [5]: < 0.4 mL/min/g
clearance [6]: < 14 mL/min/kg
Papp [7]: 29.5 ×10⁻⁶ cm/s
solubility [8]: 141 µg/mL (≈ 297 µM)
IC50 (Integrin alpha-V/beta-5 [3]): 794 nM
CLH [9]: 14.3 mL/min/g
CLH [10]: < 7 mL/min/kg
Ratio IC50 (Homo sapiens): 800
clearance [11]: < 6 mL/min/kg
chromatographic logD [12]: 5.05
IC50 (Integrin alpha-V/beta-3 [4]): > 10 µM
clearance [13]: < 0.46 mL/min/g
CLH [14]: < 0.45 mL/min/g
CLH [15]: 68 mL/min/kg
